Test [1] addresses Neuronal acetylcholine receptor subunit alpha-7 (Rattus norvegicus, UniProt Q05941). In words: Displacement of [125I]alpha-bungarotoxin from alpha7nAChR in rat hippocampus membrane. The class given is cell membranes.
In test [2] the target is T1, Neuronal acetylcholine receptor; alpha4/beta2 (Rattus norvegicus, UniProt P09483+P12390). The test is described as follows: Displacement of [3H]epibatidine from alpha4beta2 nAChR in rat cerebral cortex membrane. The class given is cell membranes.
Test [3] has as its target T2, Neuronal acetylcholine receptor; alpha4/beta2 (Homo sapiens, UniProt P17787+P43681). In words: Agonist activity at human alpha4beta2 nAChR expressed in GH4C1 cells assessed as increase in inward channel current measured after 3 to 4 days at -70 mV holding potential by patch clamp assay. The class given is cell-based.
Test [4] can be described thus: Selectivity index, ratio of Ki for human alpha3beta4 nAChR in […] cell membrane to Ki for alpha4beta2 nAChR in rat cerebral cortex membrane. The class given is cell-based.
The target in test [5] is T2, Neuronal acetylcholine receptor; alpha4/beta2. The test is described as follows: Agonist activity at human alpha4beta2 nAChR expressed in GH4C1 cells assessed as increase in inward channel current measured after 3 to 4 days at -70 mV holding potential by patch clamp assay relative to acetylcholine. The class given is cell-based.
For test [6], the target named is T3, Neuronal acetylcholine receptor; alpha3/beta4 (Homo sapiens, UniProt P30926+P32297). The test is described as follows: Agonist activity at human alpha3beta4 nAChR expressed in GH4C1 cells assessed as increase in inward channel current at >1 uM measured after 3 to 4 days at -70 mV holding potential by patch clamp assay. The class given is cell-based.
A further test is filed under the species Rattus norvegicus. In words: Selectivity index, ratio of Ki for alpha7 nAChR in rat hippocampus membrane to Ki for alpha4beta2 nAChR in rat cerebral cortex membrane. The class given is cell membranes.
Test [7] addresses T3, Neuronal acetylcholine receptor; alpha3/beta4. In words: Agonist activity at human alpha3beta4 nAChR expressed in GH4C1 cells assessed as increase in inward channel current measured after 3 to 4 days at -70 mV holding potential by patch clamp assay. The class given is cell-based.
Test [8] shares this target. In words: Displacement of [3H]epibatidine from human alpha3beta4 nAChR transfected in […] cell membrane. The class given is cell membranes.
Test [9] has the same target. The test is described as follows: Agonist activity at human alpha3beta4 nAChR expressed in GH4C1 cells assessed as inward channel current at 0.01 to 100 uM measured after 3 to 4 days at -70 mV holding potential by patch clamp assay. The class given is cell-based.
Test [10] concerns the target T1, Neuronal acetylcholine receptor; alpha4/beta2. In words: Displacement of [3H]cytisine from alpha4beta2 nAChR in rat brain cerebral cortex membrane incubated for 75 mins by scintillation counting method. The class given is cell membranes.

Structures are written as SMILES. The source made the active and inactive calls. The rule behind the calls is not given here.

Chain of Neuronal acetylcholine receptor subunit alpha-7 (Q05941 whole entry): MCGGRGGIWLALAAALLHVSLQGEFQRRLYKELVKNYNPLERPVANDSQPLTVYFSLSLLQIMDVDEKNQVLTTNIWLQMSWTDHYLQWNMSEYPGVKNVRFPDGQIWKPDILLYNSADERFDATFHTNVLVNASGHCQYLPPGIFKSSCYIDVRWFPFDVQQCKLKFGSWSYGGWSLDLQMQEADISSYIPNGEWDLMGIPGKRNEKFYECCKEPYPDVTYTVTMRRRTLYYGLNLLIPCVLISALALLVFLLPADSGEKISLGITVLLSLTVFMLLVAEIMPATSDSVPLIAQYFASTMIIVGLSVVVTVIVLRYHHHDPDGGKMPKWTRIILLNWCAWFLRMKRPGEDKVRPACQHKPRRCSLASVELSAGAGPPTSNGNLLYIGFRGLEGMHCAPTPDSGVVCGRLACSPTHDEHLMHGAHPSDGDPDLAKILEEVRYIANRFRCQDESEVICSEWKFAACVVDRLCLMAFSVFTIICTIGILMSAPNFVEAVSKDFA
T1 sequence (P09483 whole entry): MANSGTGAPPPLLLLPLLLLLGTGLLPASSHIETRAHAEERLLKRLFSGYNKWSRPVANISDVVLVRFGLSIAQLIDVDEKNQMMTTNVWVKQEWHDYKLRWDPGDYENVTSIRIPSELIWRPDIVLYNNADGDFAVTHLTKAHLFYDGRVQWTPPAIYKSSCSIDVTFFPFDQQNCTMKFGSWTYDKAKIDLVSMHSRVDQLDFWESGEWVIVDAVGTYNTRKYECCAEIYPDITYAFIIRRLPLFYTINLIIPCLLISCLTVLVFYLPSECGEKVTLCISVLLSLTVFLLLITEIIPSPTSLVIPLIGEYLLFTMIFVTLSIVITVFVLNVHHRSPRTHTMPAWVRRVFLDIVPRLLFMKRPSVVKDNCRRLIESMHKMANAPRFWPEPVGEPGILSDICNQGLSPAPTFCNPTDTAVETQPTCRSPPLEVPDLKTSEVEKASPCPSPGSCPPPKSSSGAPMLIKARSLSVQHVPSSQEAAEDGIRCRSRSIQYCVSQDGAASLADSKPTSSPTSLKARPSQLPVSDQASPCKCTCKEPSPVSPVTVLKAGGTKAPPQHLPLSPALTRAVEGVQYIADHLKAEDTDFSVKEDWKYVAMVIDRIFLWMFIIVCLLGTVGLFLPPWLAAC
T1 sequence (P12390 whole entry): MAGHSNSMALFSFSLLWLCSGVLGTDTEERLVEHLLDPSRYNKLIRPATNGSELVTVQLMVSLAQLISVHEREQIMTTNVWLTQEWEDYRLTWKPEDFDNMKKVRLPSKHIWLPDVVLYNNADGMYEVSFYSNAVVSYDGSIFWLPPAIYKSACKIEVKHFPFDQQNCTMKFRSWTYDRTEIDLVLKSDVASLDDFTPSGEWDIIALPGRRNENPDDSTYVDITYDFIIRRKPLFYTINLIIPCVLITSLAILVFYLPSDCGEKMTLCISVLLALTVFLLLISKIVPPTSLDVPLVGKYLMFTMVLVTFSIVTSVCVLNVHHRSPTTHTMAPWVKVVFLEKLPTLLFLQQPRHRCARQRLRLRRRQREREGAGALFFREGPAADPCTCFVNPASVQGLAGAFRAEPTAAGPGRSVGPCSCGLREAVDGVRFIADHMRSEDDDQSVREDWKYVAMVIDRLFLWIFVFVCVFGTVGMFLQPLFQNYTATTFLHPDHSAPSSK
T2 sequence (P17787 whole entry): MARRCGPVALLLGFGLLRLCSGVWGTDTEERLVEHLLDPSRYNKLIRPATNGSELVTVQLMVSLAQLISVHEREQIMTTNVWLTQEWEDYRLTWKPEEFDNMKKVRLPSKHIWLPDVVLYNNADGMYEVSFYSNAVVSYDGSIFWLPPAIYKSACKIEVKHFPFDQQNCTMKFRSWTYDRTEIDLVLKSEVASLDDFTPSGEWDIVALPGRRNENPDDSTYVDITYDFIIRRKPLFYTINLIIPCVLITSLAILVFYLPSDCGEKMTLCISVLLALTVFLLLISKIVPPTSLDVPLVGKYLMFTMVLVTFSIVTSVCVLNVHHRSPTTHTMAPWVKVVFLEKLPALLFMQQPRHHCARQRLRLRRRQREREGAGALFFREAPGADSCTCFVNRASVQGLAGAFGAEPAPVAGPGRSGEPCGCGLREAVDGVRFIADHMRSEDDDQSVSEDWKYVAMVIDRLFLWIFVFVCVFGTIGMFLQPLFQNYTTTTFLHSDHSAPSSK
T2 sequence (P43681 whole entry): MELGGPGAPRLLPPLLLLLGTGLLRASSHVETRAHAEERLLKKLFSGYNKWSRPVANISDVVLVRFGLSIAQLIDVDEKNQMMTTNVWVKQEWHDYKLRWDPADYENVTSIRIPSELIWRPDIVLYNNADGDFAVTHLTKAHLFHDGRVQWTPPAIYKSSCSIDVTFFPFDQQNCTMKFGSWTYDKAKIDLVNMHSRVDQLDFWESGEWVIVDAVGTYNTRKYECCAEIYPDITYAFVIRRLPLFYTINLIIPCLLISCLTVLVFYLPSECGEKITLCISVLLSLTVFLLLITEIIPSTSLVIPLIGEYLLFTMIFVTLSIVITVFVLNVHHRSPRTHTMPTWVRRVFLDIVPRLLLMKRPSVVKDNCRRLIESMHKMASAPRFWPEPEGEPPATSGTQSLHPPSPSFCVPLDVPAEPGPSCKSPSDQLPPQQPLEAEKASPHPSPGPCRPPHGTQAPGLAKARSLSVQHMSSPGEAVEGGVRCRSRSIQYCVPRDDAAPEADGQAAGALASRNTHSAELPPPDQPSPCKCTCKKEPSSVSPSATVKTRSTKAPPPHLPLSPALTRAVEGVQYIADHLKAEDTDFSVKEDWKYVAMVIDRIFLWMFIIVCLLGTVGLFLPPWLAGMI
T3 sequence (P30926 whole entry): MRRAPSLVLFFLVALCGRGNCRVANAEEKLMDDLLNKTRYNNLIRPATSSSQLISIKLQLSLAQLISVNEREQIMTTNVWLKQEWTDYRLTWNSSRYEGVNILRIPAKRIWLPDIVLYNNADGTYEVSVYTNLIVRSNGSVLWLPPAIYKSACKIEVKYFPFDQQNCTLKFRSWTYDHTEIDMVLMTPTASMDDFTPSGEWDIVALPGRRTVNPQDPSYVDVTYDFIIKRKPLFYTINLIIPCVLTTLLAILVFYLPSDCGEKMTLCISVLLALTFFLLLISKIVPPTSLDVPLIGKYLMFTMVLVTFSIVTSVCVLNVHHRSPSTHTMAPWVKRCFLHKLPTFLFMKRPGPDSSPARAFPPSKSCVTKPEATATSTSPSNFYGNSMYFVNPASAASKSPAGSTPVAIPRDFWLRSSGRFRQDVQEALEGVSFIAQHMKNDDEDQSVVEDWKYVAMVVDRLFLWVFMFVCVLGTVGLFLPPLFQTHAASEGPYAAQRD
T3 sequence (P32297 whole entry): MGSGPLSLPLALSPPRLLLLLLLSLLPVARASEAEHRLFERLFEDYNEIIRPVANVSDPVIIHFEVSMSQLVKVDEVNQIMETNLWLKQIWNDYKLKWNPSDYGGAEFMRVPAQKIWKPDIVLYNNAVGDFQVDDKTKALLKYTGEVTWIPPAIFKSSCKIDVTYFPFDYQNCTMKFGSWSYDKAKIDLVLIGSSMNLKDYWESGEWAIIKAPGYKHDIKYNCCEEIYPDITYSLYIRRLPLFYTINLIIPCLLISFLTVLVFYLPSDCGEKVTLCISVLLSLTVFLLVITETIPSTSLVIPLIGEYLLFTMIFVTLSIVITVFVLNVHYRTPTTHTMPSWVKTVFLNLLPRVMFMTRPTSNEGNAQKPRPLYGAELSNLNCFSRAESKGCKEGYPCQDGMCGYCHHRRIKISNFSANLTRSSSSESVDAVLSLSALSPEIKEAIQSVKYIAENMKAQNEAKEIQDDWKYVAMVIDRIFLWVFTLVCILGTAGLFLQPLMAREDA

As for `COc1cccc(NC(=O)c2cncc(N3CC4CC(C3)N4)c2)c1`, the values for the Ki in test [1], in test [2] and in test [8] were greater than 50000 nM, 0.56 nM and 265 nM, respectively. For the same compound, the EC50 in [3] was 600 nM; in test [7], greater than 10000 nM. In addition, the Ratio Ki is 473 in test [4] and greater than 89300 in the test filed under Rattus norvegicus. Further, the Imax in test [5] is 38%. For the same compound, in test [6], the outcome was Active.

For the compound `O=C(Nc1ccc(F)cc1F)c1cncc(N2CC3CC(C2)N3)c1`, the results for the Ki in test [1], in test [2] and in test [8] were greater than 50000 nM, 0.051 nM and 50 nM, respectively. The Ratio Ki in [4] was 980; in the test filed under Rattus norvegicus, greater than 980000.

On to `O=C(Nc1ccc(I)cc1)c1cncc(N2CC3CC(C2)N3)c1`, for which the Ki in test [1] was 23400 nM; in test [2], 0.366 nM; in test [8], 103 nM. Further, the Ratio Ki in [4] came out at 281; in the test listed under Rattus norvegicus, 63900.

In the case of `O=C(Nc1cccc(Cl)c1)c1cncc(N2CC3CC(C2)N3)c1`, the figures for the Ki in [1], in [2] and in [8] were 22900 nM, 0.042 nM and 59 nM, respectively. Moreover, the EC50 in test [3] came out at 1000 nM. For the same compound, the Ratio Ki in test [4] came out at 1400; in the test listed under Rattus norvegicus, 545000. Moreover, the Imax in test [5] was found to be 37%. Further, in test [9], the outcome was inactive.

Turning to `COc1cc(NC(=O)c2cncc(N3CC4CC(C3)N4)c2)cc(OC)c1`, the values for the Ki in [1], in [2] and in [8] were 43100 nM, 0.985 nM and 2000 nM, respectively. Also, the Ratio Ki in [4] was 2030; in the test listed under Rattus norvegicus it was 43800.

In the case of `COc1ccc(NC(=O)c2cncc(N3CC4CC(C3)N4)c2)cc1OC`, the Ki in test [1] was 2300 nM; in test [2] it was 0.828 nM; in test [8], 516 nM. Moreover, the Ratio Ki in test [4] worked out at 623; in the test filed under Rattus norvegicus, 2780.

Turning to `O=C(Nc1ccccc1F)c1cncc(N2CC3CC(C2)N3)c1`, the Ki in test [1] was found to be 3400 nM; in [2], 0.315 nM; in [8], 102 nM. Also, the Ratio Ki in test [4] is 324; in the test filed under Rattus norvegicus it was 10800.

Consider `O=C(c1cncc(N2CC3CC(C2)N3)c1)N1CCCc2ccccc21`, for which the Ki in [1] was greater than 50000 nM; in test [2], 0.196 nM; in test [8], 62 nM. In addition, the Ratio Ki was 316 in [4] and greater than 255000 in the test listed under Rattus norvegicus.

Take `O=C(Nc1ccc2c(c1)OCO2)c1cncc(N2CC3CC(C2)N3)c1`: the values for the Ki in test [1], in [2] and in [8] were 8400 nM, 0.106 nM and 113 nM, respectively. Besides, the Ratio Ki came to 1070 in [4] and 79200 in the test listed under Rattus norvegicus.

For `O=C(c1cncc(N2CC3CC(C2)N3)c1)N1CCc2ccccc2C1`, the Ki is 1000 nM in test [1], 0.031 nM in test [2] and 21 nM in test [8]. The Ratio Ki worked out at 677 in [4] and 32300 in the test listed under Rattus norvegicus.

As to `O=C(Nc1ccc(Cl)cc1)c1cncc(N2CC3CC(C2)N3)c1`, the Ki amounted to 13000 nM in test [1], 0.404 nM in test [2] and 123 nM in [8]. Besides, the Ratio Ki was 304 in [4] and 32200 in the test listed under Rattus norvegicus.

With `CCc1cccc(NC(=O)c2cncc(N3CC4CC(C3)N4)c2)c1`, the Ki is greater than 50000 nM in test [1], 1.3 nM in test [2] and 306 nM in test [8]. Further, the Ratio Ki in test [4] is 235; in the test listed under Rattus norvegicus, greater than 38500.

For the compound `O=C(Nc1ccc(F)cc1)c1cncc(N2CC3CC(C2)N3)c1`, the Ki was 33200 nM in test [1], 0.01 nM in test [2] and 81 nM in test [8]. Further, the EC50 is 520 nM in test [3] and greater than 10000 nM in test [7]. For the same compound, the Ratio Ki in test [4] stood at 8100; in the test filed under Rattus norvegicus it was 3.32e+06. Moreover, in test [5], the Imax turned out to be 41%. The result in test [6] was Active.

For `O=C(NCc1ccccc1)c1cncc(N2CC3CC(C2)N3)c1`, the Ki in test [1] worked out at 1070 nM; in test [2], 1.8 nM; in [8], 1600 nM. Besides, the Ratio Ki in test [4] was 889; in the test filed under Rattus norvegicus it was 594.

Turning to `O=C(Nc1cccc(F)c1)c1cncc(N2CC3CC(C2)N3)c1`, the Ki in test [1] was 27900 nM; in test [2] it was 0.044 nM; in test [8] it was 28 nM. For the same compound, the Ratio Ki in [4] was 636; in the test filed under Rattus norvegicus, 634000.

`O=C(Nc1ccccc1)c1cncc(N2CC3CC(C2)N3)c1`: the figures for the Ki in test [1], in [2] and in test [8] were 2400 nM, 1.1 nM and 192 nM, respectively. Also, the Ratio Ki in [4] was determined as 174; in the test filed under Rattus norvegicus, 2180.

In the case of `Clc1ccc(N2CC3CCC(C2)N3)cn1`, the Ki in test [10] worked out at 0.95 nM.

These data come from ChEMBL document CHEMBL4359847, “Novel N-aryl nicotinamide derivatives: Taking stock on 3,6-diazabicyclo[3.1.1]heptanes as ligands for neuronal acetylcholine receptors” (Eur J Med Chem, 2019).
